Measured values taken from patent US8633226B2, “Piperidinyl derivative as a modulator of chemokine receptor activity” (Bristol-Myers Squibb Company, priority 2008, dated 2014).

Tests used:
[1] = biological target: Human PXR (Homo sapiens (Human), UniProt O75469); test: PXR transactivation assay; format: cell-based
Description: The cell culture medium used is DMEM. […] Charcoal/dextran treated fetal bovine serum (FBS) was purchased from Hyclone (Logan, Utah). HepG2 cells were obtained from ATCC (Manassas, Va.). Human PXR-pcDNA3 and luciferase reporter containing CYP3A4 promoter, CYP3A-Luc, were generated at Bristol-Myers Squibb. White tissue culture (TC)-surface 384-well plates were purchased from Perkin Elmer (Boston, Mass.). Luciferase substrate (Steady-Glo) was purchased from Promega (Madison, Wis.). Control compounds rifampicin, mifepristone, and sulfinpyrazone were purchased from Sigma (St. Louis, Mo.).
Culture of HepG2 cells is performed in T175 flasks using DMEM containing 10% FBS. The transfection mixture contains 1 μg/mL of PXR-pcDNA3 plasmid DNA, 20 μg/ml of Cyp3A-Lue plasmid DNA, 90 μL/mL of Lipofectamine 2000, and serum-free medium. After incubating at room temperature for 20 minutes, the transfection mixture (1 ml per flask) is applied to the cells in fresh medium (20 mL per flask), and flasks incubated at 37° C. (5% CO2) overnight.
The flasks are then tapped vigorously to break up cell aggregates. After the addition of 8 mL of DMEM containing 5% charcoal/dextran-treated FBS, the entire mixture is transferred to conical tubes. Cells are then centrifuged at 1000 rpm for 5 minutes. Cell pellets are resuspended to a final count of ˜7×10^6 cells/ml, in freezing media (DMEM containing 20% serum and 10% DMSO). The cell suspension is aliquoted into 15-mL polypropylene tubes, 5 mL per tube. Cells are slowly frozen by placing in a Styrofoam-insulated container at −80° C. overnight. Vials are transferred to an Ultracold (−140° C.) freezer after 24 hours for long-term storage.
Vials of cryopreserved cells are thawed rapidly in a warm water bath for five minutes. Cells are pooled and diluted to 50 mL in a 50-mL conical vial. The thawed cells are centrifuged at 1500 rpm for 5 minutes to collect the cells and the supernatant discarded. Cells are then resuspended in fresh Media II (DMEM containing 5% charcoal/dextran-treated FBS, 1% Penicillin/Streptomycin, 100 μM Non-essential Amino Acids, 1 mM Sodium Pyruvate, and 2 mM L-Glutamine), counted using the Guava Cell Counter, and diluted to 1.6×10^5 cells/ml in the same media.
Fifty microliters of cell mixture is added to wells in columns 1-23 of white tissue-culture treated 384-well plates containing 0.25 μL of test compound dissolved in 100% DMSO. Fifty microliters of Media II is added to wells in column 24. The plates are incubated at 37° C. (5% CO2) for 24 hours, then 5 μL of Alamar Blue reagent (Trek Diagnostics, Cat #00-100) is added to each well. Plates are then incubated an additional two hours at 37° C., 5% CO2 and then one hour at room temperature. […] After the fluorescence is measured, 25 μL of luciferase substrate (Steady-Glo, Promega) is added to each well. The plates are incubated for fifteen minutes at room temperature, after which the luminescence is read on a PheraStar (BMG Labtech) plate reader.
Rifampicin (10 μM), a well-known agonist of PXR, is included in each plate as an internal standard and positive control. The data is then expressed as percent control (% CTRL), where the control signal is the signal from the 10 μM rifampicin and the blank signal is that from the DMSO vehicle. % CTRL=((Compound signal−Blank signal)/(Control signal−Blank signal))*100
The EC50 is defined as the concentration corresponding to half of the maximal response derived from the fitted 20-point curve as determined using a four-parameter logistic regression model. Additionally, compounds may also be reported as EC20 or EC60.

[2] = In vitro metabolism assay, human liver microsomes, Assay Conditions B; format: in vitro ADME; conditions: 10 min, 3 μM, pH 7.4
Experimental: Test compound is received as 20 mM in DMSO. Compound is diluted to create a 300 μM acetonitrile (ACN) solution containing 1.5% DMSO, which is then used as a 100× stock for incubation with microsomes. Each compound is tested in duplicate separately in each of three species in the Metabolic Stability-Human, Rat, Mouse assay suite or individual species in the Metabolic Stability-Dog or Metabolic Stability-Monkey suites. Compound, NADPH and liver microsome solutions are combined for incubation in three steps: • 1. 450 μL of liver microsome suspension, protein concentration of 1 mg/mL in 100 mM NaPi, pH. 7.4, 6.6 mM MgCl2 buffer, are pre-warmed at 37° C. • 2. 5 μl of 300 μM compound (98.5% CAN, 1.5% DMSO) is added to the same tube. • 3. The reaction is initiated by the addition of 50 μl of pre-warmed 5 mM NADPH solution in 100 mM NaPi, pH 7.4.
Reaction components are mixed well and 150 μL removed to quench/stop solution immediately for the zero-minute time point. Reactions are incubated at 37° C. for 10 minutes and then an additional 150 μL removed from incubation. Aliquots removed are combined with 300 μL ACN which contains 100 μM DMN as a UV standard for detection.
Quenched mixtures are centrifuged at 1500 rpm (˜500×g) in an Allegra X-12 centrifuge, SX4750 rotor (Beckman Coulter Inc., Fullerton, Calif.) for fifteen minutes to pellet denatured microsomes. A volume of 110 μl of supernatant extract, containing the mixture of parent compound and its metabolites, is then transferred to a separate 96-well plate for UV-LC/MS-MS analysis to determine the percent of parent compound that is remaining in the mixture.

[3] = biological target: human cardiac sodium channel SCN5A (Homo sapiens (Human), UniProt Q14524); test: Sodium channel whole-cell patch-clamp assay; format: cell-based; conditions: HEK-293 cells expressing human cardiac sodium channel SCN5A, pH 7.4, protein-free buffer, read-out: Na, % inh
Chain of human cardiac sodium channel SCN5A (Q14524 whole entry): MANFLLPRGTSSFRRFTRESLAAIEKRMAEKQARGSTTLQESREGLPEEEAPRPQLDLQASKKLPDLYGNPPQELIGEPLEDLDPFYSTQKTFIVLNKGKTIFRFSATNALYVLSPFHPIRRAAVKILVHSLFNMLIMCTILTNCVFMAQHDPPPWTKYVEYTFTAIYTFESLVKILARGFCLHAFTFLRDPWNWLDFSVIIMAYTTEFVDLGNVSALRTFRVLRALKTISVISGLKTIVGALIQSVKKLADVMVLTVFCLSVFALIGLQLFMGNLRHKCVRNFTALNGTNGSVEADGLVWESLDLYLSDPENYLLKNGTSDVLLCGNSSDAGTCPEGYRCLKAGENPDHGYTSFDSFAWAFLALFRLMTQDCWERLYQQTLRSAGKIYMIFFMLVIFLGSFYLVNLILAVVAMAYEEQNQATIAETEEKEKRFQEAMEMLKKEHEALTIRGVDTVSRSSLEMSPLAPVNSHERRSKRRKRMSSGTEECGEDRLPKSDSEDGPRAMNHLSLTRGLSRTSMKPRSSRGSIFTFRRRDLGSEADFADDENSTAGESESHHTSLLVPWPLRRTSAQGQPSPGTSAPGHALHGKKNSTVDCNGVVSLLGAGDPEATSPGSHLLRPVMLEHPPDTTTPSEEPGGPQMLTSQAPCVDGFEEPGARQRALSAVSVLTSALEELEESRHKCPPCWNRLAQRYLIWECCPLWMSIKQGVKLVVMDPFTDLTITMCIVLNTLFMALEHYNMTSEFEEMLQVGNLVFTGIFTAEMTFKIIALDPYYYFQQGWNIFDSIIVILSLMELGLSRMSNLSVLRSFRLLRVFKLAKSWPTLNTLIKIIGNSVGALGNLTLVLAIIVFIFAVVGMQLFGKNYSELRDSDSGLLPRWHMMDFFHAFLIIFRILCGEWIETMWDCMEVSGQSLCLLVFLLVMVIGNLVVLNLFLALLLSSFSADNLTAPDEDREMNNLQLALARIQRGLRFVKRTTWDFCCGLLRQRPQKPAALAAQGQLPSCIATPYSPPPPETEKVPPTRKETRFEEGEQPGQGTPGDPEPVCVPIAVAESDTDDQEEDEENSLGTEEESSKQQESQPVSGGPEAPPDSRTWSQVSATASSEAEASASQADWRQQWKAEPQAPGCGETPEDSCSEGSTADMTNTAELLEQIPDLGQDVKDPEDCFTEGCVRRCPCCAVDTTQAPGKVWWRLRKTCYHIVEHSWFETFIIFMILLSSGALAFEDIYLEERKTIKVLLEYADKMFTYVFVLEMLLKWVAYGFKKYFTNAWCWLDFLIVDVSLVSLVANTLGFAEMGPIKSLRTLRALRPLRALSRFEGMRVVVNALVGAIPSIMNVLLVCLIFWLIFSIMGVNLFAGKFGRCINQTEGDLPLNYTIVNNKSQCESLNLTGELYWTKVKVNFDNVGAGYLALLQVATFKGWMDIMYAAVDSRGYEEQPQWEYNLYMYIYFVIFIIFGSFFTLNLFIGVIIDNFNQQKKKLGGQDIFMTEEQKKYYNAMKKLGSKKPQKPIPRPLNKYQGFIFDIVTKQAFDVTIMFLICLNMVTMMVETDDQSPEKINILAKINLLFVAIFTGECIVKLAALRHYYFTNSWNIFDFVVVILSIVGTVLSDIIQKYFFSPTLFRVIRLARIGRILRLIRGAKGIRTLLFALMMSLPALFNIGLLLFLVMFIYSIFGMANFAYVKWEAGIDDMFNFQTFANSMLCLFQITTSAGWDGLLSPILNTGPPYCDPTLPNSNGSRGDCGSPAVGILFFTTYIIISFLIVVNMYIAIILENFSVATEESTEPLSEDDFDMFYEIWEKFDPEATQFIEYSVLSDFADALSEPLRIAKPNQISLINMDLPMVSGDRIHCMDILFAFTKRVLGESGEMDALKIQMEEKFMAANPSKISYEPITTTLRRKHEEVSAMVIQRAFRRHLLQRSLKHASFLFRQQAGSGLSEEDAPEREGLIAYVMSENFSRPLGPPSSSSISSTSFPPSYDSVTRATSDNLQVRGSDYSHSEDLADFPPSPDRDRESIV
Experimental: Whole-cell patch-clamp was used to directly measure inward sodium currents in HEK-293 cells expressing the human cardiac sodium channel, SCN5A. After reach steady-state effect in the presence of drug, rate-dependence was assessed by stimulation at frequencies of 1 Hz and 4 Hz. Experiments were carried out using an aqueous buffer at pH 7.4 and at room temperature. There is no protein in the buffer and drug concentrations reported are nominal free drug levels. Test article was evaluated up to 10 μM (protein-free buffer). Rate-dependence of inhibition was assessed by stimulation at frequencies of 1 Hz and 4 Hz.

[4] = HepG2 cells, CYP3A-Luc reporter

Chain of Human PXR (O75469 whole entry): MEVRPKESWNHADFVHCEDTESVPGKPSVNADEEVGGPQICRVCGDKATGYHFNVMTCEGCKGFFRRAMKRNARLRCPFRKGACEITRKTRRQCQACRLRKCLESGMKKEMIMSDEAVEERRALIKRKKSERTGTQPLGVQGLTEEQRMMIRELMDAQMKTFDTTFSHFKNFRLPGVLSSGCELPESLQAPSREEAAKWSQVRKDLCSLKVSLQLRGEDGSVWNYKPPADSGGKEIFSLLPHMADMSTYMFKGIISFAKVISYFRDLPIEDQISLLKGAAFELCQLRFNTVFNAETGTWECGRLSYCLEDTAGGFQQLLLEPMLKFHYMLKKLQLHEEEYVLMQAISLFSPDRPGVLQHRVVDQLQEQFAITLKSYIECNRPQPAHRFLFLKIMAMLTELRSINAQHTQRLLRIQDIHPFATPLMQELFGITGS

Row | Compound | EC50 [1, 4] [nM] | Human Liver Microsomal Metabolism % remaining (Assay Conditions B) [2] | PXR EC60 ([1]; HepG2 cells, CYP3A-Luc reporter, reported as EC60) [nM] | inhibition at 10 µM [3] [%] | PXR activation (in words) ([1]; in vitro screen)
1 | CC(C)[C@@H](NC(=O)C1CCCC1)C(=O)N1CC[C@](O)(c2ccc(Cl)cc2)C(C)(C)C1 [#460] | 530 | 16% |  |  | 
2 | CC(C)CC(=O)N[C@@H](C(=O)N1CC[C@](O)(c2ccc(Cl)cc2)C(C)(C)C1)C(C)C [#466] |  | 33% | 1120 |  | 
3 | CC(C)[C@@H](NC(=O)CC(C)(C)O)C(=O)N1CC[C@](O)(c2ccc(Cl)cc2)C(C)(C)C1 [#1356] | 1830 | 100% (A)/100% (B) |  |  | 
4 | CC(C)[C@@H](NC(=O)NCC(C)(C)O)C(=O)N1CC[C@](O)(c2ccc(Cl)cc2)C(C)(C)C1 [Compound I] | > 25000 | 100% (B) |  | 12 | not a significant activator
